Experiments:
[1] = system: HIF1a protein in H9c2 rat cardiomyocytes; assay: Cell-based HIF-alpha stabilization assay (inhibition of PHD in cells); conditions: 24 hrs compound incubation, HIF1a protein by ELISA; for EC50: Rattus norvegicus, H9c2, 24 h, read-out: Inhibition of PHD in cells (pEC50) (converted)
Outline: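 Rat H9c2 cardiomyocytes, cultured 24 h, were treated 24 h with an 11-point serial dilution of compound. HIF1a in whole-cell lysates was quantified by ELISA as % of the maximal desferrioxamine response. EC50 came from curve fitting; EC50pos is the concentration reaching 50% of the desferrioxamine maximum.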

[2] = target: PHD2 enzyme (residues 181-417) (Homo sapiens (Human), UniProt Q9GZT9); assay: Inhibition of PHD enzyme (LC/MS peptide hydroxylation assay); format: biochemical; conditions: PHD2 (residues 181-417) 5 nM, 60 min pre-incubation; -log(IC50), IC50 molar
Outline: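 PHD2 (5 nM final) preincubated with inhibitor 60 min at RT in 50 mM HEPES, 50 mM KCl, 0.5 mM TCEP, 2 uM FeCl2, 0.1 mg/ml BSA, pH 7.3. Reaction started with biotin-peptide (1 uM), 2-oxoglutarate (2 uM), ascorbate (1 mM), quenched at 60 min; hydroxylated product by LC/MS, reported as pIC50.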

Sequence of PHD2 enzyme (residues 181-417) (Q9GZT9 181-417): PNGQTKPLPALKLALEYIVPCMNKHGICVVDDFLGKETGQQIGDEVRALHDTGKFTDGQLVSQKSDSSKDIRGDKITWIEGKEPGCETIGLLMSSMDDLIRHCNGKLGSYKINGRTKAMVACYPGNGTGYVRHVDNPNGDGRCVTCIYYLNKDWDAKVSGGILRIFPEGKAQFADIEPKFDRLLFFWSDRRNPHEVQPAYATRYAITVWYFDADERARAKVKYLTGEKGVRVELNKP

Row | Structure (SMILES) | EC50 [1] [nM] | PHD Inhibition (pIC50) [2] | Inhibition of PHD in cells (pEC50) [1]
1 | Cc1cc(C#N)ccc1-c1cnn(-c2ccc(C(=O)NC3CCN(C)CC3)cn2)c1O [Example 100, 6-(4-(4-cyano-2-methylphenyl)-5-hydroxy-1H-pyrazol-1-yl)-N-(1-methylpiperidin-4-yl)nicotinamide] | 75.9 | 8.1 | –
2 | Cc1cc(C#N)ccc1-c1cnn(-c2ccc(C(=O)NCC3CN(C)CCO3)cn2)c1O (stereo not shown) [Example 101, 6-(4-(4-cyano-2-methylphenyl)-5-hydroxy-1H-pyrazol-1-yl)-N-((4-methylmorpholin-2-yl)methyl)nicotinamide] | 158 | 8.1 | –
3 | Cc1cc(C#N)ccc1-c1cnn(-c2ccc(C(=O)NCCC3CCCN3C)cn2)c1O (stereo not shown) [Example 102, 6-(4-(4-cyano-2-methylphenyl)-5-hydroxy-1H-pyrazol-1-yl)-N-(2-(1-methylpyrrolidin-2-yl)ethyl)nicotinamide] | 58.9 | 7.9 | –
4 | COC[C@H]1CCC[C@H]1NC(=O)c1ccc(-n2ncc(-c3ccc(C#N)cc3C)c2O)nc1 [Example 103, 6-(4-(4-cyano-2-methylphenyl)-5-hydroxy-1H-pyrazol-1-yl)-N-((1R,2S)-2-(methoxymethyl)cyclopentyl)nicotinamide] | 178 | 8.1 | –
5 | Cc1cc(C#N)ccc1-c1cnn(-c2ccc(C(=O)NCCCN3CCOCC3)cn2)c1O [Example 104, 6-(4-(4-cyano-2-methylphenyl)-5-hydroxy-1H-pyrazol-1-yl)-N-(3-morpholinopropyl)nicotinamide] | 95.5 | 8.2 | –
6 | Cc1cc(C#N)ccc1-c1cnn(-c2ccc(C(=O)NCCCN3CCCC3)cn2)c1O [Example 105, 6-(4-(4-cyano-2-methylphenyl)-5-hydroxy-1H-pyrazol-1-yl)-N-(3-(pyrrolidin-1-yl)propyl)nicotinamide] | 61.7 | 8 | –
7 | Cc1cc(C#N)ccc1-c1cnn(-c2ccc(C(=O)NCCCn3ccnc3)cn2)c1O [Example 106, N-(3-(1H-imidazol-1-yl)propyl)-6-(4-(4-cyano-2-methylphenyl)-5-hydroxy-1H-pyrazol-1-yl)nicotinamide] | 355 | 8 | –
8 | CNC(=O)c1ccc(-n2ncc(-c3ccc(C#N)cc3C)c2O)nc1 [Example 107, 6-(4-(4-cyano-2-methylphenyl)-5-hydroxy-1H-pyrazol-1-yl)-N-methylnicotinamide] | 129 | 8.4 | –
9 | CCNC(=O)c1ccc(-n2ncc(-c3ccc(C#N)cc3C)c2O)nc1 [Example 108] | 110 | 8.3 | –
10 | CN(C)CC(C)(C)NC(=O)c1ccc(-n2ncc(-c3ccc(C#N)cc3)c2O)nc1 [Example 109, 6-(4-(4-cyanophenyl)-5-hydroxy-1H-pyrazol-1-yl)-N-(1-(dimethylamino)-2-methylpropan-2-yl)nicotinamide] | 1200 | 7.7 | –
11 | COC[C@H]1CCC[C@H]1NC(=O)c1ccc(-n2ncc(-c3ccc(C#N)cc3)c2O)nc1 [Example 110, 6-(4-(4-cyanophenyl)-5-hydroxy-1H-pyrazol-1-yl)-N-((1R,2S)-2-(methoxymethyl)cyclopentyl)nicotinamide] | 1230 | 8.1 | –
12 | CN1CCOC(CNC(=O)c2ccc(-n3ncc(-c4ccc(C#N)cc4)c3O)nc2)C1 (stereo not shown) [Example 111, 6-(4-(4-cyanophenyl)-5-hydroxy-1H-pyrazol-1-yl)-N-((4-methylmorpholin-2-yl)methyl)nicotinamide] | 2140 | 7.8 | –
13 | CCOCCNC(=O)c1ccc(-n2ncc(-c3ccc(C#N)cc3)c2O)nc1 [Example 112, 6-(4-(4-cyanophenyl)-5-hydroxy-1H-pyrazol-1-yl)-N-(2-ethoxyethyl)nicotinamide] | 1380 | 7.32 | –
14 | CC(NC(=O)c1ccc(-n2ncc(-c3ccc(C#N)cc3)c2O)nc1)C1CCCO1 (stereo not shown) [Example 113, 6-(4-(4-cyanophenyl)-5-hydroxy-1H-pyrazol-1-yl)-N-(1-(tetrahydrofuran-2-yl)ethyl)nicotinamide] | 1380 | 7.22 | –
15 | COCCC(C)NC(=O)c1ccc(-n2ncc(-c3ccnc(OC)c3)c2O)nc1 (stereo not shown) [Example 114, 6-(5-hydroxy-4-(2-methoxypyridin-4-yl)-1H-pyrazol-1-yl)-N-(4-methoxybutan-2-yl)nicotinamide] | 257 | 6.55 | –
16 | CC(C)N1CCC(NC(=O)c2ccc(-n3ncc(-c4ccc(C#N)cc4)c3O)nc2)CC1 [Example 115, 6-(4-(4-cyanophenyl)-5-hydroxy-1H-pyrazol-1-yl)-N-(1-isopropylpiperidin-4-yl)nicotinamide] | 1820 | 6.91 | –

Row | Structure (SMILES) | EC50 [1] [nM] | PHD Inhibition (pIC50) [2] | Inhibition of PHD in cells (pEC50) [1]
17 | N#Cc1ccc(-c2cnn(-c3ccc(C(=O)NCCCc4nccs4)cn3)c2O)cc1 [Example 116, 6-(4-(4-cyanophenyl)-5-hydroxy-1H-pyrazol-1-yl)-N-(3-(thiazol-2-yl)propyl)nicotinamide] | 741 | 7.42 | –
18 | N#Cc1ccc(-c2cnn(-c3ccc(C(=O)NCCCn4cccn4)cn3)c2O)cc1 [Example 117, N-(3-(1H-pyrazol-1-yl)propyl)-6-(4-(4-cyanophenyl)-5-hydroxy-1H-pyrazol-1-yl)nicotinamide] | 646 | 7.44 | –
19 | N#Cc1ccc(-c2cnn(-c3ccc(C(=O)NCCCOCC4CC4)cn3)c2O)cc1 [Example 118, 6-(4-(4-cyanophenyl)-5-hydroxy-1H-pyrazol-1-yl)-N-(3-(cyclopropylmethoxy)propyl)nicotinamide] | 316 | 7.36 | –
20 | CO[C@H]1CC[C@@H](NC(=O)c2ccc(-n3ncc(-c4ccc(C#N)cc4C)c3O)nc2)CC1 [Example 119, 6-(4-(4-cyano-2-methylphenyl)-5-hydroxy-1H-pyrazol-1-yl)-N-((1 s,4s)-4-methoxycyclohexyl)nicotinamide] | 126 | 7.11 | –
21 | Cc1cc(C#N)ccc1-c1cnn(-c2ccc(C(=O)N[C@H]3CCOC3)cn2)c1O [Example 120, (S)-6-(4-(4-cyano-2-methylphenyl)-5-hydroxy-1H-pyrazol-1-yl)-N-(tetrahydrofuran-3-yl)nicotinamide] | 102 | 7.2 | –
22 | COCCCNC(=O)c1ccc(-n2ncc(-c3ccc(C#N)cc3C)c2O)nc1 [Example 121, 6-(4-(4-cyano-2-methylphenyl)-5-hydroxy-1H-pyrazol-1-yl)-N-(3-methoxypropyl)nicotinamide] | 191 | 7.17 | –
23 | CC[C@H](C)NC(=O)c1ccc(-n2ncc(-c3ccc(C#N)cc3C)c2O)nc1 [Example 122, (S)—N-(sec-butyl)-6-(4-(4-cyano-2-methylphenyl)-5-hydroxy-1H-pyrazol-1-yl)nicotinamide] | 95.5 | 7.06 | –
24 | N#Cc1ccc(-c2cnn(-c3ccc(C(=O)N4CCOCC4)cn3)c2O)cc1 [Example 123, 4-(5-hydroxy-1-(5-(morpholine-4-carbonyl)pyridin-2-yl)-1H-pyrazol-4-yl)benzonitrile] | 4790 | 7.16 | –
25 | Cc1cc(C#N)ccc1-c1cnn(-c2ccc(C(=O)NCCCO)cn2)c1O [Example 125, 6-(4-(4-cyano-2-methylphenyl)-5-hydroxy-1H-pyrazol-1-yl)-N-(3-hydroxypropyl)nicotinamide] | 372 | 7.19 | –
26 | CCOCCNC(=O)c1ccc(-n2ncc(-c3ccc(C#N)cc3C)c2O)nc1 [Example 126, 6-(4-(4-cyano-2-methylphenyl)-5-hydroxy-1H-pyrazol-1-yl)-N-(2-ethoxyethyl)nicotinamide] | 380 | 7.24 | –
27 | Cc1cc(C#N)ccc1-c1cnn(-c2ccc(C(=O)NC3CC3)cn2)c1O [Example 127, 6-(4-(4-cyano-2-methylphenyl)-5-hydroxy-1H-pyrazol-1-yl)-N-cyclopropylnicotinamide] | 93.3 | 7.18 | –
28 | Cc1cc(C#N)ccc1-c1cnn(-c2ccc(C(=O)NC(C)C)cn2)c1O [Example 128, 6-(4-(4-cyano-2-methylphenyl)-5-hydroxy-1H-pyrazol-1-yl)-N-isopropylnicotinamide] | 145 | 7.04 | –
29 | COCC1(NC(=O)c2ccc(-n3ncc(-c4ccc(C#N)cc4C)c3O)nc2)CCCC1 [Example 129, 6-(4-(4-cyano-2-methylphenyl)-5-hydroxy-1H-pyrazol-1-yl)-N-(1-(methoxymethyl)cyclopentyl)nicotinamide] | 186 | 7.14 | –
30 | Cc1cc(C#N)ccc1-c1cnn(-c2ccc(C(=O)NCCCCO)cn2)c1O [Example 130, 6-(4-(4-cyano-2-methylphenyl)-5-hydroxy-1H-pyrazol-1-yl)-N-(4-hydroxybutyl)nicotinamide] | 417 | 7.27 | –
31 | Cc1cc(C#N)ccc1-c1cnn(-c2ccc(C(=O)N[C@H]3CC[C@@H](O)CC3)cn2)c1O [Example 131, 6-(4-(4-cyano-2-methylphenyl)-5-hydroxy-1H-pyrazol-1-yl)-N-((1 s,4s)-4-hydroxycyclohexyl)nicotinamide] | 257 | 7.21 | –
32 | Cc1cc(C#N)ccc1-c1cnn(-c2ccc(C(=O)N[C@H]3CC[C@H](O)CC3)cn2)c1O [Example 132, 6-(4-(4-cyano-2-methylphenyl)-5-hydroxy-1H-pyrazol-1-yl)-N-((1r,4r)-4-hydroxycyclohexyl)nicotinamide] | – | 7.26 | 6.59

From US10407409B2, “6-(5-hydroxy-1H-pyrazol-1-yl)nicotinamide inhibitors of PHD” (Takeda Pharmaceutical Company Limited, priority 2013, dated 2019)
